Experimental data as given in patent US12297502B2, “Methods and compositions for detecting and diagnosing diseases and conditions” (Stealth BioTherapeutics Inc., priority 2013, dated 2025).

Tests used:
[1] = cited from earlier work
[2] = test system: plasma membrane of several mammalian cell types; settings: energy-independent manner; Zhao et al., J. Pharmacol Exp Ther., 304:425-432, 2003; cited from earlier work
[3] = test system: heart mitochondrial cardiolipin; test: 18:2 cardiolipin in left ventricle heart muscle, dog model of heart failure (shotgun lipidomics); type: in vivo; settings: HF dogs, 0.5 mg/kg/day intravenously, 12 weeks, versus normal dogs (NL) and untreated HF dogs (HF-CON)
From the text: In this Example, the effect of aromatic-cationic peptide such as D-Arg-2′6′-Dmt-Lys-Phe-NH2 on heart mitochondrial cardiolipin levels in dogs with coronary microembolization-induced heart failure will be investigated.
Heart failure will be induced in dogs via multiple sequential intracoronary microembolizations as described in Sabbah, et al., Am J Physiol. (1991) 260:H1379-84, herein incorporated by reference in its entirety. Half the dogs will be subsequently treated with the mitochondrial peptide; the other half will be treated with drug vehicle and serve as controls. Peptide treatment will be started upon induction of heart failure (HF), defined as left ventricular ejection fraction of approximately 30%. The daily dose of the peptide will be 0.5 mg/kg/day administered intravenously. At the end of the treatment phase (12 weeks) dogs in both the vehicle and treatment groups will be sacrificed and a sample of heart muscle from the left ventricle will be removed, washed with saline, and immediately frozen and stored at −80° C. For cardiolipin analysis, lipids will be extracted from the heart tissue sample with a chloroform/methanol solution (Bligh Dyer extraction). […]

[4] = molecular target: mu-opioid receptor (Homo sapiens, UniProt P35372); test: mu-opioid receptor agonist activity; settings: stated in the description, no test described
[5] = test system: dogs with coronary microembolization-induced heart failure; test: LV function and mitochondrial ATP synthesis, dog model of heart failure; type: in vivo; settings: HF dogs, chronic treatment
[6] = test system: TAZ1 mRNA; test: TAZ1 mRNA in LV tissue by real-time PCR, dog model of heart failure; type: in vivo; settings: HF dogs, 0.5 mg/kg subcutaneous once daily, three months, normalized to GAPDH, printed as e.g. about ... or more
From the text: In this Example, the effect of the aromatic-cationic peptide D-Arg-2′6′-Dmt-Lys-Phe-NH2 on cardiolipin remodeling enzymes, MLCL AT1, ALCAT1, and TAZ1 in dogs with coronary microembolization-induced heart failure will be investigated.
Heart failure will be induced in dogs via multiple sequential intracoronary microembolizations as described in Sabbah, et al., Am J Physiol. (1991) 260:H1379-84, herein incorporated by reference in its entirety.
Twelve dogs will be subject to coronary microembolization-induced heart failure (LV ejection fraction ˜30%). Subjects will be randomized into D-Arg-2′6′-Dmt-Lys-Phe-NH2-treated and control groups for a three-month trial. Subjects will receive subcutaneous injections of D-Arg-2′6′-Dmt-Lys-Phe-NH2 (0.5 mg/kg once daily, n=6) or saline (Untreated-HF Control, n=6). RNA will be prepared from LV tissue of all subjects at the end of the treatment phase and from the LV of six normal subject controls. Levels of TAZ1 mRNA will be determined by real-time PCR. Changes in mRNA levels will be expressed as fold reduction using the CT Method, with normalization to a […] (GAPDH) internal control.

Sequence of mu-opioid receptor (P35372 whole entry, species assumed): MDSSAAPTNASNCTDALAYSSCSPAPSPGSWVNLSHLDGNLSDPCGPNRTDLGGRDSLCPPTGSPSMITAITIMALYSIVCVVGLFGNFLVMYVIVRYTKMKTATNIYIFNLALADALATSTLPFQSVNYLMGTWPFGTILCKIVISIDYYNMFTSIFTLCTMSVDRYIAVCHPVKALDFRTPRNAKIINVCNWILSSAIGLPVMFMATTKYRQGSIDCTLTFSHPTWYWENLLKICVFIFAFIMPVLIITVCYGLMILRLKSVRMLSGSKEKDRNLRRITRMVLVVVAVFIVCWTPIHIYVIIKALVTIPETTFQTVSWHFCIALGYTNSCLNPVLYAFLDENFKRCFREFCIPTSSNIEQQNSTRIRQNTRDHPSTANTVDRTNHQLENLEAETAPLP

cardiolipin
pK2 ([1]; ionization of both phosphates): > 7.5
pK1 ([1]; ionization of one phosphate): 3

2′,6′-Dmt-D-Arg-Phe-Lys-NH2
penetration of cell membranes [2]: readily penetrates

D-Arg-2′6′-Dmt-Lys-Phe-NH2
levels of 18:2 cardiolipin [3]: normalize
mu-opioid receptor agonist activity [4]: does not have mu-opioid receptor agonist activity
LV function [5]: improved
rate of mitochondrial ATP synthesis [5]: improved
attenuation of the decrease of TAZ1 mRNA [6]: 1-1.23 fold
